Results as given in US12410164B2, “Heterocyclic compounds and medical use thereof” (FONDAZIONE TELETHON, priority 2018, dated 2025).

Key:
Type in all cases: cell-based
F508del-CFTR [1] = target: T1, F508del-CFTR (Homo sapiens, UniProt P13569, DEL508-508); experiment: Transepithelial short-circuit current in primary nasal epithelial cells of F508del homozygous CF patient; design: endogenous in cells; host or cells: primary bronchial and nasal epithelial cells from CF patients homozygous for F508del; settings: FIG. 3C
T1 sequence (P13569 with tags, fused parts or gaps DEL508-508): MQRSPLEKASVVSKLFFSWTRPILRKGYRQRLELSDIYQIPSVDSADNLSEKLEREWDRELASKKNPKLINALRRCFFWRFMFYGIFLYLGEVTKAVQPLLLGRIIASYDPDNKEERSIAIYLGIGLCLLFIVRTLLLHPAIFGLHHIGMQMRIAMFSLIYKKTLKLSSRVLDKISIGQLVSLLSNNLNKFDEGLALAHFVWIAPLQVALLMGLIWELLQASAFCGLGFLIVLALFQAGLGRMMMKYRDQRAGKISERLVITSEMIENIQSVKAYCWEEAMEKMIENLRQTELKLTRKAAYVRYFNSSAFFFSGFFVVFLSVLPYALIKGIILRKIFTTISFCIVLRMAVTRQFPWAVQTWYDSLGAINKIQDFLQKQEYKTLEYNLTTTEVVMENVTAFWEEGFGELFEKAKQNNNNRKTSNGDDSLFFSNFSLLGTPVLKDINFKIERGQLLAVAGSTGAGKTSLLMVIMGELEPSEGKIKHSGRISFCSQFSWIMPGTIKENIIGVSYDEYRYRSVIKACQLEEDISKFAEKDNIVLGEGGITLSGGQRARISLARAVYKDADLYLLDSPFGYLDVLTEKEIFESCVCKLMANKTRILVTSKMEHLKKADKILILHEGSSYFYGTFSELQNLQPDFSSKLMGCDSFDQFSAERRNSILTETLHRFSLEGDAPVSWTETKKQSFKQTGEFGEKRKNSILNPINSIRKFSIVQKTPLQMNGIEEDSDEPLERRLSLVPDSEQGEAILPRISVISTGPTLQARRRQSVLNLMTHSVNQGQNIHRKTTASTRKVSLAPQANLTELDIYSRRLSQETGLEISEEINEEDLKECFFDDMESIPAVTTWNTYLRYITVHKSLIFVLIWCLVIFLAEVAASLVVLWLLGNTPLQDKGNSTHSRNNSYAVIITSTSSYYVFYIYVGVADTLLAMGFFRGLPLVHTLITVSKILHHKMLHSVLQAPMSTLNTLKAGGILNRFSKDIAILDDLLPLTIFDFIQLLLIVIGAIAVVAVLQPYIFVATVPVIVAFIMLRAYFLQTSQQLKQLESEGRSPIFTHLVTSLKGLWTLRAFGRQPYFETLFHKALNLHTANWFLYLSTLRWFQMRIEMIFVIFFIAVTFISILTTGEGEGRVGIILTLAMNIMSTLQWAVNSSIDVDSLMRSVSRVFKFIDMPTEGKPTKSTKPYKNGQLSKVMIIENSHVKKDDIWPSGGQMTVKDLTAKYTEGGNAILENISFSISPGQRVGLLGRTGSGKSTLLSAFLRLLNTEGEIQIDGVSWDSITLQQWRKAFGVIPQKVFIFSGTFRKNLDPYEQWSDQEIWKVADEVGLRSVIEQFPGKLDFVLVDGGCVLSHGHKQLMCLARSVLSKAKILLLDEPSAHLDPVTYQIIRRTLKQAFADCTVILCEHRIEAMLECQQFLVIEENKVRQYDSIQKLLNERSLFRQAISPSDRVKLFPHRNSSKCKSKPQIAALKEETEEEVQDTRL
Description: The culture and functional study of human primary nasal and bronchial epithelial cells have been described in detail above (Scudieri P, et al. J Physiol. 2012, 590, 6141-6155). Briefly, nasal epithelial cells were taken after informed consent using the “brushing” technique. Bronchial cells were instead obtained by proteolytic digestion of bronchi isolated from the lungs of patients (suffering from CF or other pulmonary pathology (idiopathic pulmonary fibrosis, pulmonary hypertension, emphysema) subjected to transplant operations. The informed consent of the patients was obtained also in this case. After isolation, epithelial cells were cultured in a liquid medium of defined serum-free composition. This medium consists of a mixture of LHC9/RPMI 1640 (1:1) enriched with various hormones and growth factors (Scudieri P, et al. J Physiol. 2012, 590, 6141-6155). After 3-5 passages, necessary for the expansion of the initial number, the cells were seeded at high density on Snapwell porous supports (Corning, 3801). After 24 hours, the culture medium was replaced by a mixture consisting of DMEM and Ham's F12 (1:1) enriched with 2% foetal bovine serum and other supplements. […] With this mode, the transepithelial potential difference is locked to zero and the resulting current, supplied by the Voltage Clamp is recorded by an AD/DA converter (PowerLab, ADInstruments).

G542X-CFTR = experiment: HS-YFP assay in null CFBE41o− cells transfected with G542X-CFTR
Experimental: To assess the function and pharmacological sensitivity of G542X-CFTR mutant, inventors used the null version of CFBE41o− cells, i.e. cells with negligible expression of endogenous CFTR and without HS-YFP. Such cells were transiently transfected with the plasmid coding for HS-YFP alone or in combination with: empty plasmid, plasmid coding for wild type CFTR, or plasmid coding for G542X-CFTR. For transfection, cells were seeded in 96-well microplates (30,000 cells/well) in 150 μl of antibiotic-free culture medium. After 24 hours, cells were transfected with the desired plasmids. For each well, 0.2 μg of total plasmid DNA and 0.5 μl of Lipofectamine 2000 (Invitrogen) were first pre-mixed in 50 μl of OPTIMEM (Invitrogen) to generate transfection complexes (60 minutes at room temperature), and then added to the cells. After 24 hour, the complexes were removed by replacement with fresh culture medium. The HS-YFP functional assay was performed after further 24 hours.
To assess the ability of compounds of present invention to improve the rescue of premature stop codon (class I) mutations, we carried out experiments on G542X-CFTR (FIG. 7). Null CFBE41o− cells, devoid of endogenous CFTR expression, were transiently transfected with empty, wild type CFTR or G542X-CFTR plasmids. All cells also received the HS-YFP plasmid to allow functional determination of CFTR-dependent anion transport. […] Where indicated, cells with G542X-CFTR were also treated with G418 (0.5 mg/ml) for 24 hr to induce readthrough of the stop codon mutation, with and without correctors (VX-809 and/or PP028, labeled as VX and PP). […] The activity resulting from wild type CFTR is also shown for comparison.

F508del-CFTR [2] = target: T1, F508del-CFTR; experiment: Analysis of F508del-CFTR localization by immunofluorescence in CFBE41o− cells; design: expressed in transfected cells; host or cells: CFBE41o- cells with expression of F508del-CFTR and HS-YFP (generated as in Sondo et al. 2011); settings: compound 10 μM plus VX-809 1 μM, 24 hr
Experimental: CFBE41o− cells were seeded in a 12-well μ-chamber (81201, Ibidi) at a density of 25.000 cells per well and treated with compounds for 24 hr. Cells were then rinsed with PBS and fixed by adding 100 μl per well of 10% neutral buffered formalin for 5 minutes at room temperature. After 3 washes with 300 μl of PBS, cells were permeabilized with PBS-Triton X-100 0.3% for 5 min, blocked with PBS-BSA 1% for 2 hr, and incubated overnight at 4° C. with 100 μl of primary antibody diluted in blocking solution. The CFTR antibody was ab570 mouse IgG1 (University of North Carolina at Chapel Hill, and Cystic Fibrosis Foundation Therapeutics, see Cui L, et al. J. Mol Biol 2007, 365, 981-994) diluted at 1:250. Following incubation with primary antibody, cells were rinsed three times with PBS and incubated with 100 μl of a solution of secondary goat anti-mouse Alexa Fluor-546 antibodies (Invitrogen A-11030) diluted in PBS-BSA 1% for 1 hour in the dark. After three further washes in PBS, cells were covered with mounting medium and coverslip, and then analysed using a laser-scanning confocal microscope SPE (Leica Microsystems).
As a second type of experiment, the localization of F508del-CFTR protein was evaluated by immunofluorescence. Cells were treated with compounds, then fixed and immunostained with antibodies against CFTR. Images were taken with a confocal microscope.

Compound | effect of combination with VX-809 on F508del-CFTR current (F508del-CFTR [1]) | CFTR activity (QR) in G542X-CFTR cells versus G418 alone (G542X-CFTR; G418 0.5 mg/ml plus VX-809 1 μM or PP028 10 μM) | comparison of co-treatments with G418 in G542X-CFTR cells (G542X-CFTR; PP028 10 μM versus VX-809 1 μM, each plus G418) | F508del-CFTR localization (F508del-CFTR [2])
CCOC(=O)c1c(Br)c2c(n1Cc1ccc(C)cc1)-c1[nH]c(=O)c(S(=O)(=O)c3ccccc3)cc1CC2 [PP008, Ethyl 7-(benzenesulfonyl)-3-bromo-1-[(4-methylphenyl)methyl]-8-oxo-4,5,8,9-tetrahydro-1H-pyrrolo[3,2-h]quinoline-2-carboxylate] | synergistic effect | – | – | –
CCOC(=O)c1c(Br)c2c(n1Cc1cccc(C)c1)-c1[nH]c(=O)c(S(=O)(=O)c3ccccc3)cc1CC2 [PP028, Ethyl 3-bromo 1-(3-methylbenzyl)-8-oxo-7-(phenylsulfonyl)-4,5,8,9-tetrahydro-1H-pyrrolo[3,2-h]quinoline-2-carboxylate] | – | further increased activity | significantly more effective than VX-809 | cause appearance of F508del-CFTR at the cell periphery
